Experimental data: patent US20250163104A1, “MACROCYCLIC IMMUNOMODULATORS” (priority 2021, published 2025)
Where a SMILES comes first, the peptide text is derived from it. Bridges are numbered along the chain shown (N, C = ends). [ ]: non-standard residue; d: D form. The star is where a group is joined. ξ: configuration not given here. Ala(1H-tetrazol-5-yl) = N[C@@H](Cc1nnn[nH]1)C(=O)O; Phe(4-COOH) = N[C@@H](Cc1ccc(C(=O)O)cc1)C(=O)O; Bip = N[C@@H](Cc1ccc(-c2ccccc2)cc1)C(=O)O; Phe(3-Me) = Cc1cccc(C[C@H](N)C(=O)O)c1; 4Pal = N[C@@H](Cc1ccncc1)C(=O)O; Cha = N[C@@H](CC1CCCCC1)C(=O)O; Cit = NC(=O)NCCC[C@H](N)C(=O)O; Carboxymethyl = O=C(O)C*; Orn = NCCC[C@H](N)C(=O)O; Dab = NCC[C@H](N)C(=O)O; Dap = NC[C@H](N)C(=O)O; ξOrn = NCCCC(N)C(=O)O

molecular target: T1, human PD-1 / PD-L1-Ig binding on Jurkat cell line over-expressing human PD-1 (Jurkat-PD-1) (Homo sapiens, UniProt Q15116); test: Jurkat-PD-1 Cell Binding High-Content Screening Assay (CBA); type: cell-based; details: Jurkat HPD1_PDL1 IC50, Jurkat-PD-1 cells, PE-labeled PD-L1-Ig 20 nM final
T1 construct: expressed in transfected cells; host or cells: Jurkat
In short: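 Cell-bound PE-labeled PD-L1-Ig (20 nM final, 1 h) measured by high-content imaging after fixation and Hoechst 33342 counterstain. Compound was applied first for 2 h at 37° C. to Jurkat cells over-expressing human PD-1 in DMEM with 10% FCS.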

T1 sequence (Q15116 25-288): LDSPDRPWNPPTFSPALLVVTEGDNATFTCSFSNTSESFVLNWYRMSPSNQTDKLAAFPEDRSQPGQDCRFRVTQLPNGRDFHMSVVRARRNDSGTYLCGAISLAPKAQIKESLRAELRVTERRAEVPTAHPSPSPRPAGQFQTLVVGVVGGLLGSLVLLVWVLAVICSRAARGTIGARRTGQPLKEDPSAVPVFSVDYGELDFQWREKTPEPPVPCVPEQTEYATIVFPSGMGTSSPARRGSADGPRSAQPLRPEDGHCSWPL

CC(C)C[C@@H]1NC(=O)[C@H](Cc2c[nH]c3ccccc23)NC(=O)[C@H](CC(=O)O)NC(=O)[C@H](Cc2ccc(OCC(=O)O)cc2)NC(=O)[C@H](CN)NC(=O)CSC[C@@H](C(=O)NCC(N)=O)NC(=O)[C@H](CO)NC(=O)[C@H](C(C)C)NC(=O)[C@H](CC2CCCCC2)NC(=O)[C@H](CC(N)=O)NC(=O)[C@@H](CC(C)C)NC(=O)[C@H](CCCN)NC(=O)[C@H](C(C)C)NC(=O)[C@H](Cc2ccc(-c3ccccc3)cc2)NC1=O [Compound 1336] ({CH2CO}-[Dap]Y(Carboxymethyl)DWL[Bip]V[Orn][dL]N[Cha]VSCG-NH2; thioether N-14) gave an IC50 of 21.2 nM.

same assay, conditions: Jurkat-PD-1 cells, PE-labeled PD-L1-Ig 20 nM final; read-out: Jurkat HPD1_PDL1 IC50

In order of falling IC50:
1. CC(C)C[C@H]1NC(=O)[C@H](CCCN)NC(=O)[C@H](CCCNC(N)=O)NC(=O)[C@H](Cc2ccc(-c3ccccc3)cc2)NC(=O)[C@H](C(C)C)NC(=O)[C@H](Cc2c[nH]c3ccccc23)NC(=O)[C@H](Cc2nn[nH]n2)NC(=O)[C@H](Cc2ccc(OCC(=O)O)cc2)NC(=O)[C@H](CN)NC(=O)CSC[C@@H](C(=O)N[C@@H](C)C(N)=O)NC(=O)[C@H]([C@@H](C)O)NC(=O)[C@H](C(C)C)NC(=O)[C@H](CC2CCCCC2)NC(=O)[C@H](CCN)NC1=O [Compound 1328] ({CH2CO}-[Dap]Y(Carboxymethyl)[Ala(1H-tetrazol-5-yl)]WV[Bip][Cit][Orn][dL][Dab][Cha]VTCA-NH2; thioether N-14)  34.5 nM
2. Cc1cccc(C[C@@H]2NC(=O)[C@H](Cc3nn[nH]n3)NC(=O)[C@H](Cc3ccc(OCC(=O)O)cc3)NC(=O)[C@H](CN)NC(=O)CSC[C@@H](C(=O)N[C@@H](C)C(N)=O)NC(=O)[C@H]([C@@H](C)O)NC(=O)[C@H](C(C)C)NC(=O)[C@H](CC3CCCCC3)NC(=O)[C@H](CCN)NC(=O)[C@@H](CC(C)C)NC(=O)[C@H](CCCN)NC(=O)[C@H](CCCNC(N)=O)NC(=O)[C@H](Cc3ccc(-c4ccccc4)cc3)NC(=O)[C@H](C(C)C)NC2=O)c1 [Compound 1327] ({CH2CO}-[Dap]Y(Carboxymethyl)[Ala(1H-tetrazol-5-yl)][Phe(3-Me)]V[Bip][Cit][Orn][dL][Dab][Cha]VTCA-NH2; thioether N-14)  31.6 nM
3. CC(C)C[C@@H]1NC(=O)[C@H](CCN)NC(=O)[C@@H](CC(C)C)NC(=O)[C@H](CCCN)NC(=O)[C@H](CCCNC(N)=O)NC(=O)[C@H](Cc2ccc(-c3ccccc3)cc2)NC(=O)[C@H](C(C)C)NC(=O)[C@H](Cc2c[nH]c3ccccc23)NC(=O)[C@H](CC(=O)O)NC(=O)[C@H](Cc2ccncc2)NC(=O)[C@H](Cc2ccc(OCC(=O)O)cc2)NC(=O)CSC[C@@H](C(=O)N[C@@H](C)C(N)=O)NC(=O)[C@H]([C@@H](C)O)NC(=O)[C@H](C(C)C)NC1=O [Compound 1323] ({CH2CO}-Y(Carboxymethyl)[4Pal]DWV[Bip][Cit][Orn][dL][Dab]LVTCA-NH2; thioether N-14)  29.4 nM
4. CC(C)C[C@@H]1NC(=O)[C@H](Cc2c[nH]c3ccccc23)NC(=O)[C@H](CC(=O)O)NC(=O)[C@H](Cc2ccncc2)NC(=O)[C@H](CN)NC(=O)CSC[C@@H](C(=O)NCC(N)=O)NC(=O)[C@H](CO)NC(=O)[C@H](C(C)C)NC(=O)[C@H](CC2CCCCC2)NC(=O)[C@H](CC(N)=O)NC(=O)[C@@H](CC(C)C)NC(=O)[C@H](CCCN)NC(=O)[C@H](C(C)C)NC(=O)[C@H](Cc2ccc(-c3ccccc3)cc2)NC1=O [Compound 1337] ({CH2CO}-[Dap][4Pal]DWL[Bip]V[Orn][dL]N[Cha]VSCG-NH2; thioether N-14)  27 nM
5. CC(C)C[C@@H]1NC(=O)[C@H](Cc2c[nH]c3ccccc23)NC(=O)[C@H](CC(=O)O)NC(=O)[C@H](Cc2ccc(O)cc2)NC(=O)[C@H](Cc2ccccc2)NC(=O)CSC[C@@H](C(=O)NCC(N)=O)NC(=O)[C@H](CO)NC(=O)[C@H](C(C)C)NC(=O)[C@H](CC2CCCCC2)NC(=O)[C@H](CC(N)=O)NC(=O)[C@@H](CC(C)C)NC(=O)[C@H](CCCN)NC(=O)[C@H](C(C)C)NC(=O)[C@H](Cc2ccc(-c3ccccc3)cc2)NC1=O [Compound 1334] ({CH2CO}-FYDWL[Bip]V[Orn][dL]N[Cha]VSCG-NH2; thioether N-14)  26.9 nM
6. CC(C)C[C@@H]1NC(=O)[C@H](Cc2c[nH]c3ccccc23)NC(=O)[C@H](CC(=O)O)NC(=O)[C@H](Cc2ccc(C(=O)O)cc2)NC(=O)[C@H](Cc2ccc(OCC(=O)O)cc2)NC(=O)CSC[C@@H](C(=O)NCC(N)=O)NC(=O)[C@H](CO)NC(=O)[C@H](C(C)C)NC(=O)[C@H](CC2CCCCC2)NC(=O)[C@H](CC(N)=O)NC(=O)[C@@H](CC(C)C)NC(=O)[C@H](CCCN)NC(=O)[C@H](C(C)C)NC(=O)[C@H](Cc2ccc(-c3ccccc3)cc2)NC1=O [Compound 1335] ({CH2CO}-Y(Carboxymethyl)[Phe(4-COOH)]DWL[Bip]V[Orn][dL]N[Cha]VSCG-NH2; thioether N-14)  20.9 nM
7. Cc1cccc(C[C@@H]2NC(=O)[C@H](CC(=O)O)NC(=O)[C@H](Cc3ccncc3)NC(=O)[C@H](Cc3ccc(OCC(=O)O)cc3)NC(=O)CSC[C@@H](C(=O)N[C@@H](C)C(N)=O)NC(=O)[C@H]([C@@H](C)O)NC(=O)[C@H](C(C)C)NC(=O)[C@H](CC(C)C)NC(=O)[C@H](CCN)NC(=O)[C@@H](CC(C)C)NC(=O)[C@H](CCCN)NC(=O)[C@H](CCCNC(N)=O)NC(=O)[C@H](Cc3ccc(-c4ccccc4)cc3)NC(=O)[C@H](C(C)C)NC2=O)c1 [Compound 1324] ({CH2CO}-Y(Carboxymethyl)[4Pal]D[Phe(3-Me)]V[Bip][Cit][Orn][dL][Dab]LVTCA-NH2; thioether N-14)  15.5 nM
8. CC[C@H](C)[C@@H]1NC(=O)[C@H](Cc2ccc(-c3ccccc3)cc2)NC(=O)[C@H](C(C)C)NC(=O)[C@H](Cc2cccc(C)c2)NC(=O)[C@H](CC(=O)O)NC(=O)[C@H](Cc2ccncc2)NC(=O)[C@H](Cc2ccc(OCC(=O)O)cc2)NC(=O)CSC[C@@H](C(=O)N[C@@H](C)C(N)=O)NC(=O)[C@H]([C@@H](C)O)NC(=O)[C@H](C(C)C)NC(=O)[C@H](CC2CCCCC2)NC(=O)[C@H](CCN)NC(=O)[C@@H](CC(C)C)NC(=O)[C@H](CCCN)NC1=O [Compound 1330]  12.8 nM
9. CC(C)C[C@H]1NC(=O)[C@H](CCCN)NC(=O)[C@H](CCCNC(N)=O)NC(=O)[C@H](Cc2ccc(-c3ccccc3)cc2)NC(=O)[C@H](C(C)C)NC(=O)[C@H](Cc2c[nH]c3ccccc23)NC(=O)[C@H](CC(=O)O)NC(=O)[C@H](Cc2ccncc2)NC(=O)[C@H](Cc2ccc(OCC(=O)O)cc2)NC(=O)CSC[C@@H](C(=O)N[C@@H](C)C(N)=O)NC(=O)[C@H]([C@@H](C)O)NC(=O)[C@H](C(C)C)NC(=O)[C@H](CC2CCCCC2)NC(=O)[C@H](CCN)NC1=O [Compound 1326]  12.1 nM
10. CC[C@H](C)[C@@H]1NC(=O)[C@H](Cc2ccc(-c3ccccc3)cc2)NC(=O)[C@H](C(C)C)NC(=O)[C@H](Cc2c[nH]c3ccccc23)NC(=O)[C@H](CC(=O)O)NC(=O)[C@H](Cc2ccncc2)NC(=O)[C@H](Cc2ccc(OCC(=O)O)cc2)NC(=O)CSC[C@@H](C(=O)N[C@@H](C)C(N)=O)NC(=O)[C@H]([C@@H](C)O)NC(=O)[C@H](C(C)C)NC(=O)[C@H](CC2CCCCC2)NC(=O)[C@H](CCN)NC(=O)[C@@H](CC(C)C)NC(=O)[C@H](CCCN)NC1=O [Compound 1332]  11.7 nM
11. CC(C)C[C@H]1NC(=O)C(CCCN)NC(=O)[C@H](CCCNC(N)=O)NC(=O)[C@H](Cc2ccc(-c3ccccc3)cc2)NC(=O)[C@H](C(C)C)NC(=O)[C@H](Cc2c[nH]c3ccccc23)NC(=O)[C@H](CC(=O)O)NC(=O)[C@H](Cc2ccc(C(=O)O)cc2)NC(=O)[C@H](CN)NC(=O)CSC[C@@H](C(=O)N[C@@H](C)C(N)=O)NC(=O)[C@H]([C@@H](C)O)NC(=O)[C@H](C(C)C)NC(=O)[C@H](CC2CCCCC2)NC(=O)[C@H](CCN)NC1=O (stereo partly drawn) [Compound 1333] ({CH2CO}-[Dap][Phe(4-COOH)]DWV[Bip][Cit][ξOrn][dL][Dab][Cha]VTCA-NH2; thioether N-14)  6.9 nM
12. Cc1cccc(C[C@@H]2NC(=O)[C@H](CC(=O)O)NC(=O)[C@H](Cc3ccncc3)NC(=O)[C@H](Cc3ccc(OCC(=O)O)cc3)NC(=O)CSC[C@@H](C(=O)N[C@@H](C)C(N)=O)NC(=O)[C@H]([C@@H](C)O)NC(=O)[C@H](C(C)C)NC(=O)[C@H](CC3CCCCC3)NC(=O)[C@H](CCN)NC(=O)[C@@H](CC(C)C)NC(=O)[C@H](CCCN)NC(=O)[C@H](C(C)C)NC(=O)[C@H](Cc3ccc(-c4ccccc4)cc3)NC(=O)[C@H](C(C)C)NC2=O)c1 [Compound 1329] ({CH2CO}-Y(Carboxymethyl)[4Pal]D[Phe(3-Me)]V[Bip]V[Orn][dL][Dab][Cha]VTCA-NH2; thioether N-14)  6.8 nM
13. CC(C)C[C@H]1NC(=O)[C@H](CCCN)NC(=O)[C@H](C(C)C)NC(=O)[C@H](Cc2ccc(-c3ccccc3)cc2)NC(=O)[C@H](C(C)C)NC(=O)[C@H](Cc2c[nH]c3ccccc23)NC(=O)[C@H](CC(=O)O)NC(=O)[C@H](Cc2ccncc2)NC(=O)[C@H](Cc2ccc(OCC(=O)O)cc2)NC(=O)CSC[C@@H](C(=O)N[C@@H](C)C(N)=O)NC(=O)[C@H]([C@@H](C)O)NC(=O)[C@H](C(C)C)NC(=O)[C@H](CC2CCCCC2)NC(=O)[C@H](CCN)NC1=O [Compound 1331]  6 nM
14. Cc1cccc(C[C@@H]2NC(=O)[C@H](CC(=O)O)NC(=O)[C@H](Cc3ccncc3)NC(=O)[C@H](Cc3ccc(OCC(=O)O)cc3)NC(=O)CSC[C@@H](C(=O)N[C@@H](C)C(N)=O)NC(=O)[C@H]([C@@H](C)O)NC(=O)[C@H](C(C)C)NC(=O)[C@H](CC3CCCCC3)NC(=O)[C@H](CCN)NC(=O)[C@@H](CC(C)C)NC(=O)[C@H](CCCN)NC(=O)[C@H](CCCNC(N)=O)NC(=O)[C@H](Cc3ccc(-c4ccccc4)cc3)NC(=O)[C@H](C(C)C)NC2=O)c1 [Compound 1325] ({CH2CO}-Y(Carboxymethyl)[4Pal]D[Phe(3-Me)]V[Bip][Cit][Orn][dL][Dab][Cha]VTCA-NH2; thioether N-14)  3.1 nM
